Columns and labels:
[1] = system: Escherichia coli (ATCC 10536); assay: Agar diffusion method (inhibition zone); assay type: cell-based; set-up: key to Inhibition zone after 4 days of incubation (symbol): — (*): After 4 days of incubation, the bacteria grown up in the inhibition zone initially formed; conditions: E. coli; for Average diameters of inhibition zones, after 24 hours of incubation: 100 μl in 6 mm well, 37° C.; for Inhibition zone after 4 days of incubation (symbol): free oils
Protocol: (§1) This assay was conducted with the limonene and vanillin microcapsules suspensions after applying the washing procedure described previously. Moreover, the free active agents were also tested separately (not incorporated in microcapsules). Staphylococcus aureus (ATCC 19213) and Escherichia coli (ATCC 10536) were used as representatives for Gram positive and Gram negative bacteria, respectively. The bacterial inoculums were prepared, under aseptic conditions, by transferring 4 isolated colonies of each type to individual test tubes containing nutrient broth and then incubated at 37° C. for 24 hours. The inoculums were then diluted by sterilized Ringer solution to a concentration of 0.5 McFarland turbidity (concentration of 1.5-3.0×10^8 CFU/ml). The concentration of the bacteria dilutions, also ascertained through UV spectrophotometry at 625 nm, was 0.0938 for the S. aureus, and 0.0940 for the E. coli. The bacterial solutions were then inoculated on the surface of Mueller Hinton Agar plates, using sterilized cotton swabs, and thereafter allowed to dry. Then, a well of 6 mm diameter was made in the center of each inoculated plate; the plug was removed, and filled with 100 μl of the microcapsules suspension. The limonene oil was diluted in dimethyl sulfoxide (DMSO) (7:3 ratio), and the vanillin dissolved in corn oil (0.03 g vanillin in 1 g of oil). The plates were incubated at 37° C. for 24 h. After this time period, the diameter of the inhibition zone was measured and incubation maintained for more 4 days in order to evaluate further changes in the inhibition zone. The clear zone formed, after incubation, around each hole (inhibition halo), indicates antimicrobial activity and its diameter is a measure of the inhibitory effect. All of the tests were done in duplicates.

[2] = system: Staphylococcus aureus (ATCC 19213); assay: Agar diffusion method (inhibition zone); assay type: cell-based; set-up: key to Inhibition zone after 4 days of incubation (symbol): — (*): After 4 days of incubation, the bacteria grown up in the inhibition zone initially formed; conditions: S. aureus; for Average diameters of inhibition zones, after 24 hours of incubation: 100 μl in 6 mm well, 37° C.; for Inhibition zone after 4 days of incubation (symbol): free oils
Protocol: as §1

Structure (SMILES) | Average diameters of inhibition zones, after 24 hours of incubation [1] | Inhibition zone after 4 days of incubation (symbol) [1] | Average diameters of inhibition zones, after 24 hours of incubation [2] | Inhibition zone after 4 days of incubation (symbol) [2]
COc1cc(C=O)ccc1O [Vanillin in corn oil, Vanillin] | 0.95 ± 0.32 cm | — (*) | 1.00 ± 0.20 cm | — (*)
C=C(C)[C@H]1CC=C(C)CC1 [Limonene in DMSO, Limonene] | 3.30 ± 0.31 cm | — (*) | 3.30 ± 0.18 cm | — (*)
